According to US6043248A, “Alpha-substituted pyrimidine-thioalkyl and alkylether compounds as inhibitors of viral reverse transcriptase” (priority 1997, dated 2000):
Structures can show the parent of a compound that is named as a salt.

Tests used:
[1] = biological target: T1, P236L viral reverse transcriptase (Human immunodeficiency virus type 1 group M subtype B, UniProt P04585, P823L); assay: inhibition of viral reverse transcriptase (P236L), cell free assay; type: biochemical; conditions: IC50 (Table I, P236L), 30 minutes at 37° C.
T1 construct: P236L viral reverse transcriptase is obtained by PNAS 90: 4713-4717 (1993); made in house
In short: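 E. coli-expressed wild-type or P236L RT extracts incubated with inhibitor 30 min at 37 °C in Tris pH 8.3 with MgCl₂, NaCl, DTT, NP-40, 10 μM [35S]-dNTP, poly rC/rG template and oligo dG/dT primer. Incorporated label counted on DE81 paper; reported as % inhibition and/or IC50.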

[2] = biological target: T2, viral reverse transcriptase (Wild Type) (Human immunodeficiency virus type 1 group M subtype B, UniProt P04585); assay: inhibition of viral reverse transcriptase (Wild Type), cell free assay; type: biochemical; conditions: for IC50: read-out: IC50 (Table II, Wild Type)
T2 construct: Viral reverse transcriptase (Wild Type) is found in extracts from bacterial clones; made in house; host or cells: Escherichia coli
Source text: The utility of the pyrimidine-thioalkyl and alkylether anti-AIDS compounds of Formula IA of this invention can be determined by their ability to inhibit viral reverse transcriptase, an enzyme essential for human immunodeficiency virus replication. This enzyme has characteristics which differentiate it from other known cellular polymerases and it is a unique enzyme which is not found in uninfected cells. Viral reverse transcriptase (Wild Type) is found in extracts from bacterial clones prepared according to the procedure described in AIDS Virus Reverse Transcriptase defined by high level expression in Escherichia coli, EMBO J. 6:3133-3137 (1987). P236L viral reverse transcriptase is obtained by PNAS 90: 4713-4717 (1993). Inhibition of this enzyme is determined in a cell free assay which measures the level of radioactive precursors incorporated into DNA. Extracts prepared according to the procedure of Science, 1125-1129 (1981) are incubated in a mixture of inhibitor, 20 mM dithiothreitol, 60 mM sodium chloride, 0.05% NP-40, 10 mM magnesium chloride, 50 mM Tris pH 8.3, 10 μM [^35 S]-labeled deoxynuleoside-5'-triphosphate, 10 μg/ml RNA template (poly rC or poly rG) and 5 μg/ml DNA primer (oligo dG or oligo dT) for 30 minutes at 37° C. Incorporation of radio-labeled percursor is determined by spotting aliquots of the reaction mixture on DE81 paper, washing the papers to remove unincorporated percursor, drying and determining counts. The results (IC50 means the concentration, in μM of drug, required to inhibit the reverse transcriptase activity (P236L and Wild Type) to the extent of 50%) of various assay(s) are combined and reported as % inhibition and/or IC50 (calculated) in Table I (P236L) and Table II (Wild Type).

What does the source list for `CC(Sc1nc(N)cc(Cl)n1)c1cc2c(cn1)CCCC2` (stereo not drawn) [Example 233, 4-Amino-6-chloro-2-(1-(3-(5,6,7,8-tetrahydroisoquinolyl))ethyl)thiopyrimidine]?
IC50 [1]: 0.068 µM; IC50 ([2]; 30 minutes at 37° C.): 0.067 µM

For `CC(Sc1nc(N)cc(Cl)n1)c1cc2ccoc2cn1` (stereo not drawn) [Example 238, 4-Amino-6-chloro-2-(1-(furo[2,3-c]pyridin-5-yl)ethyl)thio-pyrimidine], which IC50 [1] is on record?
The IC50 was 0.011 µM.

What about the IC50 ([2]; 30 minutes at 37° C.) of the same compound?
The IC50 was 0.007 µM.

With `CC(C)(C)c1ccnc(CSc2nc(N)cc(C(F)(F)F)n2)c1` [Example 273, 4-amino-6-trifluoromethyl-2-((4-(1,1-dimethylethyl)2-pyridyl)methyl)-thio-pyrimidine] as the compound, how does the IC50 [1] read?
The IC50 was 0.1 µM.

What about the inhibition at 1 µM [2] of the same compound?
The inhibition at 1 µM was 75%.

What does the source list for `CC(Sc1nc(N)cc(Cl)n1)c1cc2ccccc2cn1` (stereo not drawn) [Example 230, 4-Amino-6-chloro-2-(1-(3-isoquinolyl)ethyl)thio-pyrimidine]?
IC50 [1]: 0.039 µM; IC50 ([2]; 30 minutes at 37° C.): 0.019 µM

For `CCN(CC)C(=O)/C=C/CSc1nc(N)cc(Cl)n1` [Example 194, (E)-N,N-Diethyl-4-[(4-amino-6-chloro-2-pyrimidinyl)thio]-2-butenamide], which IC50 [1] is on record?
Its IC50 is 0.034 µM.

What about the IC50 ([2]; 30 minutes at 37° C.) of the same compound?
Its IC50 is 0.049 µM.

For `CC(C)c1ccnc(C(C)Sc2nc(N)cc(C(F)(F)F)n2)c1` (stereo not drawn) [Example 272, 4-amino-6-trifluoromethyl-2-(1-(4-(1-methylethyl)2-pyridyl)ethyl)thio-pyrimidine], which IC50 [1] is on record?
Its IC50 is 0.16 µM.

What about the IC50 ([2]; 30 minutes at 37° C.) of the same compound?
The IC50 was 0.112 µM.

For `CC(Sc1nc(N)c(Br)c(Cl)n1)c1cc2ccccc2cn1` (stereo not drawn) [Example 231, 4-Amino-5-bromo-6-chloro-2-(1-(3-isoquinolyl)ethyl)thio-pyrimidine], which inhibition at 1 µM [2] is on record?
Its inhibition at 1 µM is 78%.

Which inhibition at 1 µM [2] does the source give for `Cc1ccnc(C(C#N)Sc2nc(N)cc(Cl)n2)c1` (stereo not drawn) [Example 217, 4-Amino-6-chloro-2-(1-(4-methyl-2-pyridyl)-1-cyanomethyl)thio-pyrimidine] here?
Its inhibition at 1 µM is 58%.

Which IC50 [1] does the source give for `Cc1cc2cc(C(C)Sc3nc(N)cc(C(F)(F)F)n3)ncc2o1` (stereo not drawn) [Example 243, 4-Amino-6-trifluoromethyl-2-(1-(2-methylfuro[2,3c]pyridine-5-yl)ethyl)thio-pyrimidine] here?
The IC50 was 0.188 µM.

What about the IC50 ([2]; 30 minutes at 37° C.) of the same compound?
Its IC50 is 0.495 µM.

What does the source list for `Cc1coc2cnc([C@H](C)Sc3nc(N)cc(Cl)n3)cc12` [Example 290, (S)-(-)-4-Amino-6-chloro-2-(1-(3-methylfuro[2,3c]pyridine-5-yl)ethyl)thio-pyrimidine]?
IC50 [1]: 0.014 µM; IC50 ([2]; 30 minutes at 37° C.): 0.025 µM

With `CCCCC(Sc1nc(N)cc(Cl)n1)c1cc(C)ccn1` (stereo not drawn) [Example 224, 4-Amino-6-chloro-2-(1-(4-methyl-2-pyridyl)pentyl)thio-pyrimidine] as the compound, how does the “IC50 (Table II, Wild Type)” value ([2]; 30 minutes at 37° C.) read?
Its value is “INACTIVE”.

`CCN(CC)Cc1ccnc(C(C)Sc2nc(N)cc(Cl)n2)c1` (stereo not drawn) [Example 228] was tested. Which inhibition at 10 µM [2] did it give?
The inhibition at 10 µM was 84%.

`CCc1coc2c(Cl)nc(C(C)Sc3nc(N)cc(Cl)n3)cc12` (stereo not drawn) [Example 251, 4-Amino-6-chloro-2-(1-(7-chloro-3-ethylfuro-[2,3c]pyridine-5yl)ethyl)thio-pyrimidine] was tested. Which IC50 ([2]; 30 minutes at 37° C.) did it give?
The IC50 was 0.144 µM.

How did the inhibition at 10 µM [2] turn out when `COC(=O)/C=C(\C)C(C)Sc1nc(N)cc(Cl)n1` (stereo not drawn) [Example 209, (E)-4-[(4-Amino-6-chloro-2-pyrimidinyl)thio]-3-methyl-2-pentenoic acid methyl ester] was run?
The inhibition at 10 µM was 67%.

Which inhibition at 1 µM [2] does the source give for `Cc1ccnc(C(C)(C)Sc2nc(N)cc(Cl)n2)c1` [Example 213] here?
The inhibition at 1 µM was 72%.

Which inhibition at 1 µM [2] does the source give for `Nc1cc(Cl)nc(SCc2cnc3occc3c2)n1` [Example 304, 4-amino-6-chloro-2-(furo[2,3-b]pyridin-5-yl-methylthio)-pyrimidine] here?
The inhibition at 1 µM was 94%.

Which inhibition at 1 µM [2] does the source give for `CCN(C)C(=O)/C=C/CSc1nc(N)cc(Cl)n1` [Example 203, (E)-N-ethyl-N-methyl-4-[(4-amino-6-chloro-2-pyrimidinyl)thio]-2-butenamide] here?
The inhibition at 1 µM was 96%.

How did the inhibition at 10 µM [2] turn out when `CC(C)(Sc1nc(N)cc(Cl)n1)c1ccccn1` [Example 212, 4-Amino-6-chloro-2-(1-(2-pyridyl)-1-methylethyl)thio-pyrimidine] was run?
The inhibition at 10 µM was 57%.

Which inhibition at 10 µM [2] does the source give for `Nc1cc(Cl)nc(SC/C=C/C(=O)N2CCCCC2)n1` [Example 197, (E)-1-[4-[(4-amino-6-chloro-2-pyrimidinyl)thio]-1-oxo-2-butenyl]piperidine] here?
Its inhibition at 10 µM is 83%.

For `CC(Sc1nc(N)cc(Cl)n1)c1cc(CN2CCOCC2)ccn1` (stereo not drawn) [Example 227, 4-Amino-6-chloro-2-(1-(4-(4-morpholinyl)methyl-2-pyridyl)ethyl)thio-pyrimidine], which inhibition at 50 µM [2] is on record?
Its inhibition at 50 µM is 49%.

How did the inhibition at 50 µM [2] turn out when `CCOC(=O)c1cc(N)nc(SCc2ccc3ccccc3c2)n1` [Example 305, 6-amino-2-(2-naphthylmethylthio)-pyrimidine-4-carboxylic acid ethyl ester] was run?
Its inhibition at 50 µM is 21%.

`Cc1ccnc(C(Sc2nc(N)cc(Cl)n2)C2CC2)c1` (stereo not drawn) [Example 226, 4-Amino-6-chloro-2-(1-(4-methyl-2-pyridyl)-1-cyclopropyl-methyl)thio-pyrimidine mesylate] was tested. Which inhibition at 50 µM [2] did it give?
Its inhibition at 50 µM is 79%.

Which inhibition at 1 µM [2] does the source give for `CCCN(CCC)C(=O)/C=C/CSc1nc(N)cc(Cl)n1` [Example 202, (E)-N,N-Dipropyl-4-[(4-amino-6-chloro-2-pyrimidinyl)thio]-2-butenamide] here?
The inhibition at 1 µM was 62%.

`CCC(Sc1nc(N)cc(Cl)n1)c1cc(C)ccn1` (stereo not drawn) [Example 218, 4-Amino-6-chloro-2-(1-(4-methyl-2-pyridyl)propyl)thio-pyrimidine] was tested. Which inhibition at 1 µM [2] did it give?
Its inhibition at 1 µM is 84%.

With `CC(Sc1nc(N)c(Br)c(Cl)n1)c1nccc2c1CCCC2` (stereo not drawn) [Example 236, 4-Amino-5-bromo-6-chloro-2-(1-(1-(5,6,7,8-tetrahydroisoquinolyl))ethyl)thio-pyrimidine] as the compound, how does the inhibition at 1 µM [2] read?
The inhibition at 1 µM was 58%.

How did the IC50 ([2]; 30 minutes at 37° C.) turn out when `CC(Sc1nc(N)cc(Cl)n1)c1cc2c(c(Cl)n1)OCC2(C)C` (stereo not drawn) [Example 250, 4-Amino-6-chloro-2-(1-(7-chloro-3,3-dimethyl-2,3-dihydrofuro[2,3c]pyridine-5-yl)ethyl)thio-pyrimidine] was run?
The IC50 was 0.153 µM.

How did the inhibition at 1 µM [2] turn out when `CC(Sc1nc(N)cc(Cl)n1)c1nccc2ccccc12` (stereo not drawn) [Example 232, 4-Amino-6-chloro-2-(1-(1-isoquinolyl)ethyl)thio-pyrimidine] was run?
Its inhibition at 1 µM is 90%.

For `CC(Sc1nc(N)cc(Cl)n1)c1nccc2c1CCCC2` (stereo not drawn) [Example 235, 4-Amino-6-chloro-2-(1-(1-(5,6,7,8-tetrahydroisoquinolyl))-ethyl)thiopyrimidine], which inhibition at 1 µM [2] is on record?
The inhibition at 1 µM was 90%.

Which inhibition at 1 µM [2] does the source give for `CC(=O)c1ccnc(C(C)Sc2nc(N)cc(Cl)n2)c1` (stereo not drawn) [Example 219, 4-Amino-6-chloro-2-(1-(4-acetyl-2-pyridyl)ethyl)thio-pyrimidine] here?
Its inhibition at 1 µM is 84%.

`CC(C)c1coc2cnc(C(C)Sc3nc(N)cc(Cl)n3)cc12` (stereo not drawn) [Example 252, 4-Amino-6-chloro-2-(1-(3-(1-methylethyl)furo[2,3c]-pyridin-5-yl)ethyl)thio-pyrimidine] was tested. Which IC50 ([2]; 30 minutes at 37° C.) did it give?
Its IC50 is 0.175 µM.

For `Nc1cc(Cl)nc(SC/C=C/C(=O)N2CCCC2)n1` [Example 199, (E)-1-[4-[(4-amino-6-chloro-2-pyrimidinyl)thio]-1-oxo-2-butenyl]pyrrolidine], which inhibition at 1 µM [2] is on record?
Its inhibition at 1 µM is 93%.

How did the inhibition at 10 µM [2] turn out when `CC(Sc1nc(N)cc(Cl)n1)c1ccc2ccccc2c1` (stereo not drawn) [Example 229, 4-Amino-6-chloro-2-(1-(2-naphthalenyl)ethyl)thio-pyrimidine] was run?
Its inhibition at 10 µM is 90%.

How did the inhibition at 1 µM [2] turn out when `C=CCN(C)C(=O)/C=C/CSc1nc(N)cc(Cl)n1` [Example 201, (E)-N-allyl-N-methyl-4-[(4-amino-6-chloro-2-pyrimidinyl)thio]-2-butenamide] was run?
The inhibition at 1 µM was 80%.

With `CN(C)C(=O)/C=C/CSc1nc(N)cc(Cl)n1` [Example 204, (E)-N,N-Dimethyl-4-[(4-amino-6-chloro-2-pyrimidinyl)thio]-2-butenamide] as the compound, how does the inhibition at 1 µM [2] read?
The inhibition at 1 µM was 78%.
